SMILES strings stand for the structures.

For one experiment, the target named is T1, oxytocin receptors (Rattus norvegicus, UniProt P70536).
T1 construct: The uteri are dissected out, cleaned of fat and connective tissues; from tissue; host or cells: uterus of DES-treated female Sprague-Dawley rats
T1 sequence (P70536 1-388): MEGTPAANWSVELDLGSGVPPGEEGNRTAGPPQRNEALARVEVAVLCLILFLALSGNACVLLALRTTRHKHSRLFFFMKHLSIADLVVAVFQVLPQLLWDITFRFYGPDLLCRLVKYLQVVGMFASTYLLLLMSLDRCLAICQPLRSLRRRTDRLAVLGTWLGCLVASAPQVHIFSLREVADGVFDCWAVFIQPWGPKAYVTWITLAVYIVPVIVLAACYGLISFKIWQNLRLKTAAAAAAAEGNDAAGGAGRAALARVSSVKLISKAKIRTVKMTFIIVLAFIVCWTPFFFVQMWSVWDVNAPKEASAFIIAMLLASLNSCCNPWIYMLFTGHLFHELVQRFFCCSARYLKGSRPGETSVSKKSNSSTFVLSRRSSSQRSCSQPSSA
As to the kind of experiment: Oxytocin Receptor Binding. To be noted: for inhibition at 10 µM: [3H]oxytocin; for IC50: 1.0 nM [3H]oxytocin. How it is done:
Oxytocin Receptor Binding
Female Sprague-Dawley rats weighing approximately 200-250 g are injected intramuscularly (i.m.) with 0.3 mg/kg of body weight of diethylstilbestrol (DES). The rats are sacrificed 18 hours later under pentobarbital anesthesia. The uteri are dissected out, cleaned of fat and connective tissues and rinsed in 50 ml of normal saline. The tissue pooled from six rats is homogenized in 50 ml of […] Tris.HCl, containing 0.5 mM dithiothreitol and 1.0 mM EDTA, adjusted to pH 7.4, using a polytron at setting 6 with three passes of 10 sec each. The homogenate is passed through two (2) layers of cheesecloth and the filtrate centrifuged at 1000× g for 10 min. The clear supernatant is removed and recentrifuged at 165,000× g for 30 min. The resulting pellet containing the oxytocin receptors is resuspended in 50.0 mM Tris.HCl containing 5.0 mM MgCl2 at pH 7.4, to give a protein concentration of 2.5 mg/ml of tissue suspension. This preparation is used in subsequent binding assays with [^3 H]Oxytocin.
Binding of 3,5-[^3 H]Oxytocin ([^3 H]OT) to its receptors is done in microtiter plates using [^3 H]OT, at various concentrations, in an assay buffer of 50.0 mM Tris.HCl, pH 7.4 and containing 5.0 mM MgCl2, and a mixture of protease inhibitors: BSA, 0.1 mg; aprotinin, 1.0 mg; 1,10-phenanthroline, 2.0 mg; […], 10.0 mg; and PMSF, 0.3 mg per 100 ml of buffer solution. Non-specific binding is determined in the presence of 1.0 uM unlabeled OT. The binding reaction is terminated after 60 min , at 22° C. by rapid filtration through glass fiber filters using a Brandel® cell harvester (Biomedical Research and Development Laboratories, Inc., Gaithersburg, Md.). Competition experiments are conducted at equilibrium using 1.0 nM [^3 H]OT and varying the concentration of the displacing agents. The concentrations of agent displacing 50% of [^3 H]OT at its sites (IC50) are calculated by a computer assisted LUNDON-2 program (LUNDON SOFTWARE INC., Ohio, USA).

In experiment [1] the target is T2, Rat Kidney Medullary V2 Receptors (Rattus norvegicus, UniProt Q00788).
T2 construct: Medullary tissues from rat kidneys are dissected out; from tissue; host or cells: rat kidney medulla membranes
T2 sequence (Q00788 whole entry): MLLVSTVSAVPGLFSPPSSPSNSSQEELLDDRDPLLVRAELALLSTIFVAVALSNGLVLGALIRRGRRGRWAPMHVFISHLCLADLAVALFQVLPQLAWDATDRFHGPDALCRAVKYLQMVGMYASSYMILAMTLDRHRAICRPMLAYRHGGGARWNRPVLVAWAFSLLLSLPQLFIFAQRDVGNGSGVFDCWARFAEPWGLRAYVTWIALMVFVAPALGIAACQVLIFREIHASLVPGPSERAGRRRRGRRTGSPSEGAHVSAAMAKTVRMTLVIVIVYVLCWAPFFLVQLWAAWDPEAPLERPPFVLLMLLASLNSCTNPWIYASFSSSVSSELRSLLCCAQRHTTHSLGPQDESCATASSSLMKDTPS
As to the kind of experiment: Binding Assay to Rat Kidney Medullary V2 Receptors. Particulars: for inhibition at 10 µM: rat; for IC50: rat kidney medulla membranes, read-out: V2 IC50. Put shortly:
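IC50 derived from competition curves; bound tritium counted by liquid scintillation after filtration. Rat medullary kidney membranes (Tris-HCl pH 7.4, BSA, PMSF) were incubated 120 min to equilibrium with radioligand and test compound (added in 50% DMSO). Nonspecific binding: 1.0 μM unlabeled ligand.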

A further experiment deals with T3, Rat Hepatic V1 Receptors (Rattus norvegicus, UniProt P30560).
T3 construct: Rat liver plasma membranes expressing the vasopressin V1 receptor subtypes; from tissue; host or cells: rat liver plasma membranes
T3 sequence (P30560 whole entry): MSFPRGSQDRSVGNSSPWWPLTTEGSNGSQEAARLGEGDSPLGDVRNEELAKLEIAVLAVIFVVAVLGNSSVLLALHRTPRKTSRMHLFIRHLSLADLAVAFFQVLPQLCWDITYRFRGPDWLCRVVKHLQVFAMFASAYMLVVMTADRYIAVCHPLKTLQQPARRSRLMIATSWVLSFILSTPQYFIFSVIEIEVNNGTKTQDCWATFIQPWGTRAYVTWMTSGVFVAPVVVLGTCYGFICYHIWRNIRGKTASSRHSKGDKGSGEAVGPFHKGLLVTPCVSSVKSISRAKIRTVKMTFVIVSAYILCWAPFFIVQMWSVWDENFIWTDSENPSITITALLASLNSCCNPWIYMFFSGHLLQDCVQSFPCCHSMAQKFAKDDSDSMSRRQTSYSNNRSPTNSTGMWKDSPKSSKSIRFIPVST
As to the kind of experiment: Binding Assay to Rat Hepatic V1 Receptors. Particulars: for inhibition at 10 µM: 2 h, rat; for IC50: rat liver membranes, read-out: V1 IC50.

A further experiment deals with Vasopressin V1. As to the kind of experiment: Vasopressin V1 Antagonist Activity in Conscious Rats (vasopressin vasopressor response). Format: in vivo, rat. Put shortly: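 Conscious rats are restrained supine, and under local 2% procaine a PE 10/20 cannula is passed through the ventral caudal tail artery into the lower abdominal aorta. The caudal vein is cannulated for intravenous dosing. Blood pressure is recorded with a Statham P23Db transducer, and vasopressin injections are repeated after compound dosing. Percent antagonism is calculated against the pre-drug vasopressor response taken as 100%.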

As usually defined, the inhibition is the drop in the measured response relative to a control, in per cent. A low value points to a response near the control. Take `CCOC(=O)c1ccc2c(c1)N(C(=O)c1ccc(NC(=O)c3ccccc3C)cc1)Cc1cccn1C2` [Example 676, Ethyl 10,11-Dihydro-10-[4-[(2-methylbenzoyl)amino]benzoyl]-5H-pyrrolo[2,1-c][1,4]benzodiazepin-8-carboxylate]: the inhibition at 10 µM at oxytocin receptors amounted to 32%; in experiment [1] it was 89%; at Rat Hepatic V1 Receptors it was 41%.
As usually defined, the IC50 is the concentration that inhibits the measured activity by half. Consider `O=C(Nc1ccc(C(=O)N2Cc3cccn3Cc3ccccc32)cc1)c1cccc(Cl)c1Cl` [Example 468, N-[4-(5H-pyrrolo[2,1-c][1,4]benzodiazepin-10(11H)-ylcarbonyl)phenyl]-2,3-dichlorobenzamide], for which the figures for the IC50 (on oxytocin receptors; in experiment [1]; at Rat Hepatic V1 Receptors) were 260 nM, 29 nM and 27 nM, respectively. The inhibition at 10 µM at oxytocin receptors is 96%. In the experiment with Vasopressin V1 (10 mg/kg i.v.), the “Max. % Inhibition” value worked out at 68%. Further, in the experiment with Vasopressin V1 (10 mg/kg i.v.), the “Time (of max. % inhibition)” value is 30 min.
Take `Cc1cccc(C(=O)Nc2ccc(C(=O)N3Cc4cccn4-c4ccccc43)cc2)c1C` [Example 21, N-[4-(pyrrolo[1,2-a]quinoxalin-5(4H)-ylcarbonyl)phenyl]-2,3-dimethyl-benzamide]: the concentration for half-maximal inhibition (IC50) on oxytocin receptors amounted to 2450 nM; in experiment [1], 87 nM; at Rat Hepatic V1 Receptors, 930 nM. At oxytocin receptors, this compound displayed an inhibition at 10 µM of 67%.
Take `O=C(c1ccc(NP(=O)(c2ccccc2)c2ccccc2)cc1)N1Cc2cccn2Cc2ccccc21` [Example 491, 10-[4-[(Diphenylphosphinyl)amino]benzoyl]-10,11-dihydro-5H-pyrrolo-[2,1-c][1,4]benzodiazepine]: the inhibition at 10 µM at oxytocin receptors was 46%; in experiment [1], 83%; on Rat Hepatic V1 Receptors it was 82%.
For `CCN(CC)Cc1ccc2n1Cc1ccccc1N(C(=O)c1ccc(NC(=O)c3ccc(Cl)cc3Cl)cc1)C2` [Example 667, N-[4-[[3-[(diethylamino)methyl]-5H-pyrrolo[2,1-c][1,4]benzodiazepin-10(11H)-yl]carbonyl]phenyl]-2,4-dichlorobenzamide], the IC50 on oxytocin receptors is 1600 nM; in experiment [1], 13 nM; on Rat Hepatic V1 Receptors, 170 nM. This compound also showed an inhibition at 10 µM on oxytocin receptors of 89%.
Regarding `O=C(Nc1ccc(C(=O)N2Cc3ccc(CN4CCCC4)n3Cc3ccccc32)cc1)c1ccc(Cl)cc1Cl` [Example 665, N-[4-[[3-(1-pyrrolidinylmethyl)-5H-pyrrolo[2,1-c][1,4]benzodiazepin-10(11H)-yl]carbonyl]phenyl)-2,4-dichlorobenzamide], the 50% inhibitory concentration (IC50) at oxytocin receptors stood at 1000 nM; in experiment [1], 39 nM; on Rat Hepatic V1 Receptors, 56 nM. Moreover, testing at 10 µM on oxytocin receptors gave an inhibition of 97%.
Turning to `O=C(Nc1ccc(C(=O)N2Cc3cccn3Cc3ccccc32)cc1)C(Cl)c1ccccc1` (stereo not drawn) [Example 583, α-Chloro-N-[4-(5H-pyrrolo[2,1-c][1,4]benzodiazepin-10(11H)-ylcarbonyl)phenyl]benzeneacetamide], the IC50 is 4000 nM on oxytocin receptors, 27 nM in experiment [1] and 54 nM at Rat Hepatic V1 Receptors. The compound further registered an inhibition at 10 µM at oxytocin receptors of 61%.
For the compound `Cc1ccccc1CC(=O)Nc1ccc(C(=O)N2Cc3cccn3-c3ccccc32)cc1` [Example 36, N-[4-(pyrrolo[1,2-a]quinoxalin-5(4H)-ylcarbonyl)phenyl]-2-methylbenzene-acetamide], on oxytocin receptors, the IC50 amounted to 2450 nM and testing at 10 µM gave an inhibition of 67%. For the same compound, the IC50 in experiment [1] was 54 nM. Besides, in the experiment with Vasopressin V1 (30 mg/kg i.v.), the “Max. % Inhibition” value worked out at 71% and the “Time (of max. % inhibition)” value was 60 min. At Rat Hepatic V1 Receptors, the IC50 came to 100 nM.
Take `O=C(CN1CCOCC1)N(Cc1ccccc1Cl)c1ccc(C(=O)N2Cc3cccn3Cc3ccccc32)cc1` [Example 591, N-[(2-Chlorophenyl)methyl]-N-[4-(5H-pyrrolo[2,1-c][1,4]benzodiazepin-10(11H) -ylcarbonyl)phenyl]-4-morpholineacetamide]: the inhibition at 10 µM on oxytocin receptors came to 29%; in experiment [1], 64%; on Rat Hepatic V1 Receptors, 45%.
Consider `CCOC(=O)c1ccc2n1Cc1ccccc1N(C(=O)c1ccc(NC(=O)c3ccc(Cl)cc3Cl)c(C)c1)C2` [Example 592, Ethyl 10-[4-[(2,4-dichlorobenzoyl)amino]-3-methylbenzoyl]-10,11-dihydro-5H-pyrrolo[2,1-c][1,4]benzodiazepine-3-carboxylate], for which the inhibition at 10 µM on oxytocin receptors is 41%. For the same compound, in experiment [1], the IC50 was 240 nM. For the same compound, in the experiment with Vasopressin V1 (30 mg/kg i.v.), the “Max. % Inhibition” value amounted to 37% and the “Time (of max. % inhibition)” value is reported as 90 min. Moreover, on Rat Hepatic V1 Receptors, the IC50 was found to be 3300 nM.
For the compound `O=C(Nc1ccc(C(=O)N2Cc3ccc(CN4CCOCC4)n3Cc3ccccc32)cc1)c1ccc(Cl)cc1Cl` [Example 666, N-[4-[[3-(4-morpholinomethyl)-5H-pyrrolo[2,1-c][1,4]benzodiazepin-10(11H)-yl]carbonyl]phenyl]-2,4-dichlorobenzamide], the IC50 was 2100 nM at oxytocin receptors, 13 nM in experiment [1] and 160 nM at Rat Hepatic V1 Receptors. The same compound registered an inhibition at 10 µM at oxytocin receptors of 83%.
For `Cc1ccccc1C(=O)Nc1ccc(C(=O)N2CCc3nncn3-c3ccccc32)cc1` [Example 486, N-[4-[(4,5-Dihydro-6H-[1,2,4]triazolo[4,3-a][1,5]-benzodiazepin-6-yl)carbonyl)phenyl]-2-methylbenzoate], the inhibition at 10 µM was found to be 18% on oxytocin receptors, 77% in experiment [1] and 39% on Rat Hepatic V1 Receptors.
`O=C(CCl)Nc1ccc(C(=O)N2Cc3cccn3Cc3ccccc32)cc1` [Example 589, 2-Chloro-N-[4-(5H-pyrrolo[2,1-c][1,4]benzodiazepin-10(11H) -ylcarbonyl)phenyl]acetamide] returned an IC50 on oxytocin receptors of 2900 nM. Besides, the inhibition at 10 µM was determined as 79% on oxytocin receptors, 82% in experiment [1] and 91% on Rat Hepatic V1 Receptors.
For the compound `Cc1cc(C(=O)N2Cc3cccn3Cc3ccccc32)ccc1NC(=O)c1ccccc1C` [Example 96, N-[4-(5H-pyrrolo[2,1-c][1,4]benzodiazepin-10(11H)-ylcarbonyl)-2-methylphenyl]-2-methylbenzamide], the IC50 was 1200 nM at oxytocin receptors, 11 nM in experiment [1] and 56 nM on Rat Hepatic V1 Receptors. The inhibition at 10 µM on oxytocin receptors amounted to 94%.
With `O=C(Nc1ccc(C(=O)N2Cc3ccc(C(=O)C(Cl)(Cl)Cl)n3Cc3ccccc32)cc1)c1ccc(Cl)cc1Cl` [Example 598, N-[4-[[3-(Trichloroacetyl)-5H-pyrrolo[2,1-c][1,4]benzodiazepin-10(11H) -yl]carbonyl]phenyl]-2,4-dichlorobenzamide], the inhibition at 10 µM on oxytocin receptors came to 2%; in experiment [1], 93%; on Rat Hepatic V1 Receptors, 58%.
Regarding `O=Cc1ccc2n1Cc1ccccc1N(C(=O)c1ccc(NC(=O)c3ccc(Cl)cc3Cl)cc1)C2` [Example 580, 2,4-Dichloro-N-[4-[(3-formyl-5H-pyrrolo[2,1-c][1,4]benzodiazepin-10(11H)-yl)carbonyl]phenyl]benzamide], the IC50 at oxytocin receptors is 2960 nM; in experiment [1] it was 80 nM; on Rat Hepatic V1 Receptors, 200 nM. Moreover, at oxytocin receptors, the inhibition at 10 µM was determined as 79%.
On the same counts, the results for `CN(C)Cc1ccc2n1Cc1ccccc1N(C(=O)c1ccc(NC(=O)c3ccc(Cl)cc3Cl)cc1)C2` [Example 664] are 1400 nM, 48 nM, 120 nM and 95%.

(Values after US5624923A, “Tricyclic diazepine vasopressin antagonists and oxytocin antagonists” (priority 1995, dated 1997).)
